Source: patent publication US20240182413A1, “INSECTICIDAL COMPOUNDS” (Pluton Biosciences, Inc., priority 2022, published 2024)
≈ marks a conversion by molar mass, not a printed value. Where “and” joins values, the source holds several entries; their conditions need not be identical. Identical values can stand only once. Entries after “also recorded” stand apart in the source; their conditions may differ. Like-named read-outs stand apart in the source and are kept apart here.

What was measured:
Aedes aegypti larvae = assay: Aedes aegypti killing assay (larval bioassay, two-fold dilution series); type: in vivo; details: for killing activity against Aedes aegypti: larvae
Description: Insect killing assays. Each compound was dissolved in dimethyl sulfoxide (DMSO). Killing dose curves were constructed for each compound by producing a two-fold dilution series for each compound (e.g., comprising approximately 20 serial dilutions of a stock). Dilutions were made in sterile nutrient yeast extract salt medium (NYSM) broth. The NYSM contained 8 g/L nutrient broth powder, 0.5 g/L yeast extract, 1 mM MgCl2, 700 μM CaCl2, and 50 μM MnCl2 in water. The two-fold dilution series were tested in a killing bioassay as described below. Data were collected to construct a dose curve and determine the half-maximal lethal concentration (LC50) value.
Bioassays were performed using second or third instar Aedes aegypti larvae, with biological replication. Ae. aegpyti larvae were purchased from Benzon Research, Inc. (Carlisle, PA). Larvae were washed with sterile water before transfer to 24-well assay plates containing 1 mL of sterile water in each well. Each well contained 5 larvae. The final DMSO concentration in each assay well was 1%. Larval mortality was scored for each well at 24-hour timepoints after application. […] In Table 1, mean mortalities and standard deviations were calculated from at least three independent biological replicates. […] LC50 values were calculated using GraphPad Prism software.

[1] = test system: Spodoptera frugiperda (fall armyworm) first instar larvae; assay: Spodoptera frugiperda killing assay (diet-surface overlay); type: in vivo; details: first instar larvae; for LC50: Spodoptera frugiperda
Description: Insect killing assays. Each compound was dissolved in dimethyl sulfoxide (DMSO). Killing dose curves were constructed for each compound by producing a two-fold dilution series of the compound (e.g., comprising approximately 16 serial dilutions of a stock for 3,3′-diindolylmethane and 3-((1H-Indol-2-yl)methyl)-1H-indole and comprising approximately 12 serial dilutions of a stock for 3,3′-diindolyl and 3,3′-(pyridin-4-ylmethylene)bis(1H-indole)). Dilutions were made in sterile NYSM broth as described above. The two-fold dilution series were tested in a killing bioassay as described below. Data were collected to construct a dose curve and determine the half-maximal lethal concentration (LC50) value.
Bioassays were performed using first instar larvae of the Lepidopteran species Spodoptera frugiperda (fall armyworm), with an N=16 for each concentration of compound tested. S. frugiperda larvae were purchased from Benzon Research, Inc. (Carlisle, PA). A diet-surface overlay format was used in which 1 milliliter of standard lepidopteran diet was placed in each well. One hundred microliters of sample were pipetted into each well and allowed to dry. A DMSO control was included with each set of samples.
During the development of embodiments of the technology described herein, experiments were conducted to test the killing of arundine against a panel of 11 insect species. […] Briefly, arundine was dissolved in dimethyl sulfoxide (DMSO). Killing dose curves were constructed by producing a two-fold dilution series of arundine. Dilutions were made in sterile NYSM as described. The two-fold dilution series were tested in a killing bioassay performed using first instar larvae of the species listed in Table 4, with an N=16 for each concentration of compound tested. A diet-surface overlay format was used in which 1 milliliter of standard lepidopteran diet was placed in each well. One hundred microliters of sample were pipetted into each well and allowed to dry. A DMSO control was included with each set of samples. […] Data were collected to construct a dose curve and determine the half-maximal lethal concentration (LC50) value.

[2] = second or third instar larvae, mortalities at 72 hours, mean ± standard deviation, at least three biological replicates
[3] = second or third instar larvae, mortalities at 72 hours, mean ± standard deviation, at least three biological replicates, read-out: LC50
[4] = calculated from killing dose curves FIG. 3D to 3NN, read-out: LD50 (the source's name)

COc1ccc(C(c2c[nH]c3ccccc23)c2c[nH]c3ccccc23)cc1 [1,1-bis(3′-indolyl)-1-(p-methoxyphenyl)methane]
LC50 (Aedes aegypti larvae; in vivo): 66.6 ± 56.4 µM | LC50 (μg/mL) (Aedes aegypti larvae; in vivo): 23.4 ± 19.8 µg/mL (≈ 66.4 µM)

Cc1cn(C)c2ccccc12 [1,3 dimethylindole, 1,3-dimethylindole]
LC50 (Aedes aegypti larvae; Aedes aegypti, 72 h): 13.8 µg/mL and 95.2 µM

Cc1cc2ccccc2[nH]1 [2-methindole]
LC50 (μg/mL) (Aedes aegypti larvae; [2]): 6.8 ± 0.5 µg/mL (≈ 51.8 µM) | LC50 (Aedes aegypti larvae; [3]): 52.2 ± 3.6 µM

Clc1ccc(C(c2c[nH]c3ccccc23)c2c[nH]c3ccccc23)cc1 [3,3′-((4-chlorophenyl)methylene)bis(1H-indole)]
LC50 (Aedes aegypti larvae; Aedes aegypti, 72 h): 2.6 µg/mL and 7.3 µM

CC(c1c[nH]c2ccccc12)c1c[nH]c2ccccc12 [3,3′-(ethane-1,1-diyl)bis(1H-indole)]
LC50 (Aedes aegypti larvae; Aedes aegypti, 72 h): 4.2 µg/mL and 16.1 µM

c1ccc2c(C(c3ccncc3)c3c[nH]c4ccccc34)c[nH]c2c1 [3,3′-(pyridin-4-ylmethylene)bis(1H-indole)]
LC50 (Aedes aegypti larvae; Aedes aegypti, 72 h): 62.9 µg/mL and 194 µM | killing activity against Aedes aegypti (Aedes aegypti larvae): active | LC50 ([1]; N=16 per concentration, representative curve fit): 120 µg/mL and 370 µM | activity against S. frugiperda [1]: active

c1ccc2c(-c3c[nH]c4ccccc34)c[nH]c2c1 [3,3′-diindolyl]
killing activity against Aedes aegypti (Aedes aegypti larvae): did not display any bioactivity; also recorded: does not have significant killing activity | LC50 (μg/mL) (Aedes aegypti larvae; [2]): >2500 µg/mL | LC50 (Aedes aegypti larvae; [3]): > 1000 µM | activity against S. frugiperda [1]: not active; also recorded: does not have significant killing activity

Fc1ccc2[nH]cc(Cc3c[nH]c4ccc(F)cc34)c2c1 [3,3′-methylenebis(5-fluoro-1H-indole)]
LC50 (Aedes aegypti larvae; Aedes aegypti, 72 h): 2.2 µg/mL and 7.8 µM

CCc1c[nH]c2ccccc12 [3-ethyl-1H-indole]
LC50 (Aedes aegypti larvae; Aedes aegypti, second or third instar larvae, mortalities at 72 hours, mean ± standard deviation, at least three biological replicates, read-out: LC50): 60 ± 24.2 µM | LC50 (Aedes aegypti larvae; Aedes aegypti, second or third instar larvae, mortalities at 72 hours, mean ± standard deviation, at least three biological replicates, read-out: LC50 (μg/mL)): 8.7 ± 3.5 µg/mL

Oc1ccc2[nH]ccc2c1 [5-hydroxyindole]
LC50 (Aedes aegypti larvae; Aedes aegypti, 72 h): 279 µg/mL and 2.09 mM

Cn1cc(Cc2cn(C)c3ccccc23)c2ccccc21 [BIM-2]
LC50 [1, 4]: > 3000 µM

CC(c1c[nH]c2ccccc12)c1c[nH]c2ccccc12 [BIM-3]
LC50 [1, 4]: 1280 µM

CC(C)(c1c[nH]c2ccccc12)c1c[nH]c2ccccc12 [BIM-4]
LC50 [1, 4]: 1810 µM

CCC(c1c[nH]c2ccccc12)c1c[nH]c2ccccc12 [BIM-5]
LC50 [1, 4]: 2380 µM

CCCC(c1c[nH]c2ccccc12)c1c[nH]c2ccccc12 [BIM-6]
LC50 [1, 4]: 3240 µM

c1ccc(C(c2c[nH]c3ccccc23)c2c[nH]c3ccccc23)cc1 [BIM-7]
LC50 [1, 4]: 1680 µM

c1ccc(CC(c2c[nH]c3ccccc23)c2c[nH]c3ccccc23)cc1 [BIM-8]
LC50 [1, 4]: 1480 µM

Clc1cccc2[nH]cc(Cc3c[nH]c4cccc(Cl)c34)c12 [BIM-9]
LC50 [1, 4]: 1560 µM

Clc1ccc2[nH]cc(Cc3c[nH]c4ccc(Cl)cc34)c2c1 [BIM-10]
LC50 [1, 4]: > 3000 µM

Clc1cccc2c(Cc3c[nH]c4c(Cl)cccc34)c[nH]c12 [BIM-12]
LC50 [1, 4]: 1180 µM

Fc1ccc2c(Cc3c[nH]c4cc(F)ccc34)c[nH]c2c1 [BIM-13]
LC50 [1, 4]: 1850 µM
